Source: ChEMBL document CHEMBL3046874, “Synthesis and biological evaluation of chalcones and acetyl pyrazoline derivatives comprising furan nucleus as an antitubercular agents” (2012)

Assays:
Type in all cases: functional
Escherichia coli = test: Antibacterial activity against Escherichia coli ATCC 25922 after 24 hr by agar well diffusion method
Priestia megaterium = test: Antibacterial activity against Bacillus megaterium ATCC 14518 after 24 hr by agar well diffusion method
Aspergillus niger = test: Antifungal activity against Aspergillus niger ATCC 9029 after 7 days by agar plate method
Proteus vulgaris = test: Antibacterial activity against Proteus vulgaris ATCC 29905 after 24 hr by agar well diffusion method
Staphylococcus aureus = test: Antibacterial activity against Staphylococcus aureus ATCC 25923 after 24 hr by agar well diffusion method
[1] = system: Mycobacterium tuberculosis; test: Growth inhibition of Mycobacterium tuberculosis H37Rv at 6.25 ug/ml by radiometric anlaysis; settings: read-out: GI
[2] = system: Mycobacterium tuberculosis; test: Growth inhibition of Mycobacterium tuberculosis H37Rv at 0.25 ug/ml by radiometric anlaysis; settings: read-out: GI

SMILES | inhibition zone (IZ) (Escherichia coli) [mm] | inhibition zone (IZ) (Priestia megaterium) [mm] | diameter of the inhibition zone (DIZ) (Aspergillus niger) [mm] | inhibition zone (IZ) (Proteus vulgaris) [mm] | inhibition zone (IZ) (Staphylococcus aureus) [mm] | inhibition of growth at 6.25 µg/mL [1] [%] | inhibition of growth at 0.25 µg/mL [2] [%]
Cc1ccc(C(=O)/C=C/c2ccc(-c3ccc(Cl)c(Cl)c3)o2)cc1 | 19 | 22 | 13 | 14 | 13 |  | 
CC(=O)N1N=C(c2ccc(N)cc2)CC1c1ccc(-c2ccc(Cl)c(Cl)c2)o1 (configuration not stated) | 17 | 17 | 19 | 12 | 17 | 74 | 
O=C(/C=C/c1ccc(-c2ccc(Cl)c(Cl)c2)o1)c1cccc([N+](=O)[O-])c1 | 11 | 19 | 17 | 17 | 16 |  | 
CC(=O)N1N=C(c2cccc([N+](=O)[O-])c2)CC1c1ccc(-c2ccc(Cl)c(Cl)c2)o1 (configuration not stated) | 17 | 13 | 17 | 13 | 14 | 6 | 
CC1(C)S[C@@H]2[C@H](NC(=O)[C@H](N)c3ccccc3)C(=O)N2[C@H]1C(=O)O [AMPICILLIN] | 19 | 22 | 0 | 17 | 20 |  | 
O=C(/C=C/c1ccc(-c2ccc(Cl)c(Cl)c2)o1)c1ccc([N+](=O)[O-])cc1 | 12 | 11 | 19 | 15 | 17 |  | 
CC(=O)N1N=C(c2ccc([N+](=O)[O-])cc2)CC1c1ccc(-c2ccc(Cl)c(Cl)c2)o1 (configuration not stated) | 14 | 16 | 13 | 14 | 12 | 19 | 
O=C(/C=C/c1ccc(-c2ccc(Cl)c(Cl)c2)o1)c1ccc(Cl)cc1 | 14 | 15 | 14 | 15 | 20 |  | 
CC(=O)N1N=C(c2ccc(Br)cc2)CC1c1ccc(-c2ccc(Cl)c(Cl)c2)o1 (configuration not stated) | 11 | 20 | 18 | 19 | 12 | 6 | 
CC(=O)N1N=C(c2ccc(F)cc2)CC1c1ccc(-c2ccc(Cl)c(Cl)c2)o1 (configuration not stated) | 12 | 13 | 17 | 13 | 13 | 1 | 
O=C(/C=C/c1ccc(-c2ccc(Cl)c(Cl)c2)o1)c1ccccc1O | 14 | 12 | 18 | 11 | 16 |  | 
Nc1ccc(C(=O)/C=C/c2ccc(-c3ccc(Cl)c(Cl)c3)o2)cc1 | 13 | 17 | 18 | 12 | 12 |  | 
COC1=CC(=O)C[C@@H](C)[C@]12Oc1c(Cl)c(OC)cc(OC)c1C2=O [GRISEOFULVIN] | 0 | 0 | 26 | 0 | 0 |  | 
CCn1cc(C(=O)O)c(=O)c2cc(F)c(N3CCNCC3)cc21 [NORFLOXACIN] | 20 | 23 | 0 | 21 | 19 |  | 
CC1(C)S[C@@H]2[C@H](NC(=O)Cc3ccccc3)C(=O)N2[C@H]1C(=O)O [PENICILLIN G] | 22 | 25 | 0 | 23 | 24 |  | 
COc1ccc(C(=O)/C=C/c2ccc(-c3ccc(Cl)c(Cl)c3)o2)cc1 | 12 | 13 | 19 | 19 | 20 |  | 
CC(=O)N1N=C(c2cccc(N)c2)CC1c1ccc(-c2ccc(Cl)c(Cl)c2)o1 (configuration not stated) | 15 | 14 | 17 | 15 | 13 | 4 | 
COc1ccc(C2=NN(C(C)=O)C(c3ccc(-c4ccc(Cl)c(Cl)c4)o3)C2)cc1 (configuration not stated) | 20 | 12 | 19 | 14 | 19 | 0 | 
CO[C@H]1/C=C/O[C@@]2(C)Oc3c(C)c(O)c4c(O)c(c(/C=N/N5CCN(C)CC5)c(O)c4c3C2=O)NC(=O)/C(C)=C\C=C\[C@H](C)[C@H](O)[C@@H](C)[C@@H](O)[C@@H](C)[C@H](OC(C)=O)[C@@H]1C [RIFAMPIN] |  |  |  |  |  |  | 98
O=C(/C=C/c1ccc(-c2ccc(Cl)c(Cl)c2)o1)c1ccccc1 | 19 | 20 | 19 | 15 | 14 |  | 
CC(=O)N1N=C(c2ccccc2O)CC1c1ccc(-c2ccc(Cl)c(Cl)c2)o1 (configuration not stated) | 13 | 18 | 15 | 11 | 16 | 11 | 
CC(=O)N1N=C(c2ccc(C)cc2)CC1c1ccc(-c2ccc(Cl)c(Cl)c2)o1 (configuration not stated) | 12 | 19 | 20 | 19 | 21 | 0 | 
Nc1cccc(C(=O)/C=C/c2ccc(-c3ccc(Cl)c(Cl)c3)o2)c1 | 16 | 14 | 17 | 17 | 19 |  | 
CC(=O)N1N=C(c2ccc(Cl)cc2)CC1c1ccc(-c2ccc(Cl)c(Cl)c2)o1 (configuration not stated) | 19 | 21 | 21 | 18 | 16 | 17 | 
CC1(C)S[C@@H]2[C@H](NC(=O)[C@H](N)c3ccc(O)cc3)C(=O)N2[C@H]1C(=O)O [AMOXICILLIN] | 18 | 24 | 0 | 20 | 22 |  | 
CC(=O)N1N=C(c2ccccc2)CC1c1ccc(-c2ccc(Cl)c(Cl)c2)o1 (configuration not stated) | 18 | 17 | 13 | 17 | 20 | 0 | 
O=C(/C=C/c1ccc(-c2ccc(Cl)c(Cl)c2)o1)c1ccc(F)cc1 | 16 | 17 | 14 | 14 | 12 |  | 
O=C(/C=C/c1ccc(-c2ccc(Cl)c(Cl)c2)o1)c1ccc(Br)cc1 | 20 | 21 | 21 | 16 | 19 |  | 
